{"source": "patent US20190343908A1", "about": "“Therapeutic Combination for the Treatment of Cancer” (Nerium Biotechnology Inc., priority 2011, published 2019)", "key": {"[1]": {"system": "A375 melanoma cancer cell line", "assay": "Sulforhodamine B viability assay, A375", "assay_type": "cell-based, human", "settings": "for ABSORBANCE: 0.1 μg/mL cisplatin; for Average absorbance, SRB 24 h / Average absorbance, SRB 48 h / Average absorbance, SRB 72 h: A375 Run 1", "excerpt": "(§1) Three different viability assays were chosen to complement each other and yielded results dependent on concentration and cell line: the Methyl Tetrazolium dye assay, the Sulforhodamine B fluorescent dye assay, and the Crystal Violet dye assay.\nThe Sulforhodamine B and Crystal Violet assays provide information about protein and were used to complement the Methyl-Tetrazolium dye assay. […] It is used for the quantification of cellular proteins of cultured cells. The assay using Crystal Violet, a dye that binds electrostatically to proteins and stains DNA, provides a reliable, simple assay for measuring viability of cells.\n(§2) The Methyl Tetrazolium, Sulforhodamine B, and Crystal Violet assays were used to assess cell viabilities. The incubation times were 24 hours, 48 hours, and 72 hours. The Nerium oleander extract Anvirzel™ (a hot water extract of oleander obtained from Salud Integral, Honduras) was tested in concentrations ranging from 0.01 ng/mL to 10 ng/mL.\n(§3) Cells were detached by trypsinization (Trypsin-0.25% EDTA, Invitrogen, 25200-072) during the logarithmic phase of culture growth and plated in 96-well plates (18.000 cells/well) (Corning, Costar 359) in a final volume of 200 μl of medium per well. […] The absorbance was measured after 24 hours, 48 hours, and 72 hours of incubation.\nFor the Sulforhodamine B assay, 96-well plates were fixed by 10% trichloroacetic acid (Fluka, 91228) and were incubated at 4° C. for 1 hour. Afterwards, plates were rinsed with water and cells were stained with 0.4% Sulforhodamine B (Sigma, 341738), dissolved in 1% acetic acid (Carlo Ebra, 401422) for 15 minutes at room temperature (RT). The unbound stain was washed twice with 1% acetic acid. Finally, 10 mM Tris Buffer pH 10.5 (Sigma, T6791) was added to dissolve the dye.\n(§4) The optical density of each plate was measured on a μQuant spectrophotometer and the data were analyzed with Gen5 software (μQuant Biomolecular Spectrophotometer MQX200 and Gen5™ Microplate Data Collection & Analysis software, BioTek® Instruments. Inc, April 2008). Absorbance was measured at 570 nm for all assays and a second wavelength was measured in order to subtract noise. For the Methyl-Tetrazolium assay this second wavelength was 630 nm and for the Sulforhodamine B and Crystal Violet assays it was 690 nm."}, "[2]": {"system": "T47D (human breast cancer)", "assay": "Methyl-Tetrazolium viability assay, T47D", "assay_type": "cell-based", "parameters": "key: absorbance (optical density) at 570 nm, second wavelength subtracted", "excerpt": "as §1\nThe Methyl-Tetrazolium dye assay measures the activity of enzymes in mitochondria. The dye precursor is taken up by cells, where it undergoes reduction to the purple formazan. It measures only the mitochondrial activity and, thus, it is not always a reliable indication of whether the cells themselves are alive or dead, since even a recently dead cell has […] enzyme activity in mitochondria. Intracellular glucose concentration, pH, and time before assay all affect the measurements.\nas §2, §3\nFor the Methyl-Tetrazolium assay, the dye (Sigma, M2128; 5 mg/mL, diluted in phosphate-buffered saline) was added to each well and plates were incubated for 3 hours at 37° C. After the end of the incubation period, the medium was discarded and the cells were rinsed with phosphate-buffered saline. Finally, the formazan crystals were dissolved in dimethylsulphoxide (Sigma, D4540).\nas §4"}}, "data": [{"smiles": "N.N.[Cl][Pt][Cl]", "note": "[cisplatin]", "values": [{"measurement": "ABSORBANCE", "setting": "[1]; A375, 48 h", "result": 2.421}, {"measurement": "ABSORBANCE", "setting": "[1]; A375, 72 h", "result": 2.487}, {"measurement": "Average absorbance, SRB 24 h", "setting": "[1]; 0.1 μg/ml CDDP", "result": 2.072}, {"measurement": "Average absorbance, SRB 48 h", "setting": "[1]; 0.1 μg/ml CDDP", "result": 2.421}, {"measurement": "Average absorbance, SRB 72 h", "setting": "[1]; 0.1 μg/ml CDDP", "result": 2.487}, {"measurement": "Average absorbance, SRB 24 h", "setting": "[1]; 1 μg/ml CDDP", "result": 1.579}, {"measurement": "Average absorbance, SRB 48 h", "setting": "[1]; 1 μg/ml CDDP", "result": 1.987}, {"measurement": "Average absorbance, SRB 72 h", "setting": "[1]; 1 μg/ml CDDP", "result": 2.256}, {"measurement": "Average absorbance, SRB 24 h", "setting": "[1]; 10 μg/ml CDDP", "result": 1.117}, {"measurement": "Average absorbance, SRB 48 h", "setting": "[1]; 10 μg/ml CDDP", "result": 1.678}, {"measurement": "Average absorbance, SRB 72 h", "setting": "[1]; 10 μg/ml CDDP", "result": 1.913}, {"measurement": "Average absorbance, SRB 24 h", "setting": "[1]; 100 μg/ml CDDP", "result": 1.283}, {"measurement": "Average absorbance, SRB 48 h", "setting": "[1]; 100 μg/ml CDDP", "result": 1.782}, {"measurement": "Average absorbance, SRB 72 h", "setting": "[1]; 100 μg/ml CDDP", "result": 1.319}, {"measurement": "Average absorbance SRB", "setting": "[1]; A375 Run 2, 24 h, 0.1 μg/ml CDDP", "result": 2.189}, {"measurement": "Average absorbance SRB", "setting": "[1]; A375 Run 2, 24 h, 1 μg/ml CDDP", "result": 1.916}, {"measurement": "Average absorbance SRB", "setting": "[1]; A375 Run 2, 24 h, 10 μg/ml CDDP", "result": 1.827}, {"measurement": "Average absorbance SRB", "setting": "[1]; A375 Run 2, 24 h, 100 μg/ml CDDP", "result": 1.939}, {"measurement": "Average absorbance SRB", "setting": "[1]; A375 Run 2, 48 h, 0.1 μg/ml CDDP", "result": 2.571}, {"measurement": "Average absorbance SRB", "setting": "[1]; A375 Run 2, 48 h, 1 μg/ml CDDP", "result": 1.366}, {"measurement": "Average absorbance SRB", "setting": "[1]; A375 Run 2, 48 h, 10 μg/ml CDDP", "result": 1.265}, {"measurement": "Average absorbance SRB", "setting": "[1]; A375 Run 2, 48 h, 100 μg/ml CDDP", "result": 1.293}, {"measurement": "Average absorbance SRB", "setting": "[1]; A375 Run 2, 72 h, 0.1 μg/ml CDDP", "result": 2.634}, {"measurement": "Average absorbance SRB", "setting": "[1]; A375 Run 2, 72 h, 1 μg/ml CDDP", "result": 2.085}, {"measurement": "Average absorbance SRB", "setting": "[1]; A375 Run 2, 72 h, 10 μg/ml CDDP", "result": 1.617}, {"measurement": "Average absorbance SRB", "setting": "[1]; A375 Run 2, 72 h, 100 μg/ml CDDP", "result": 1.491}, {"measurement": "Average absorbance SRB", "setting": "[1]; A375 Run 3, 24 h, 0.1 μg/ml CDDP", "result": 1.597}, {"measurement": "Average absorbance SRB", "setting": "[1]; A375 Run 3, 24 h, 1 μg/ml CDDP", "result": 1.126}, {"measurement": "Average absorbance SRB", "setting": "[1]; A375 Run 3, 24 h, 10 μg/ml CDDP", "result": 1.294}, {"measurement": "Average absorbance SRB", "setting": "[1]; A375 Run 3, 24 h, 100 μg/ml CDDP", "result": 0.982}, {"measurement": "Average absorbance SRB", "setting": "[1]; A375 Run 3, 48 h, 0.1 μg/ml CDDP", "result": 2.175}, {"measurement": "Average absorbance SRB", "setting": "[1]; A375 Run 3, 48 h, 1 μg/ml CDDP", "result": 1.83}, {"measurement": "Average absorbance SRB", "setting": "[1]; A375 Run 3, 48 h, 10 μg/ml CDDP", "result": 1.586}, {"measurement": "Average absorbance SRB", "setting": "[1]; A375 Run 3, 48 h, 100 μg/ml CDDP", "result": 1.572}, {"measurement": "Average absorbance SRB", "setting": "[1]; A375 Run 3, 72 h, 0.1 μg/ml CDDP", "result": 2.184}, {"measurement": "Average absorbance SRB", "setting": "[1]; A375 Run 3, 72 h, 1 μg/ml CDDP", "result": 1.491}, {"measurement": "Average absorbance SRB", "setting": "[1]; A375 Run 3, 72 h, 10 μg/ml CDDP", "result": 1.571}, {"measurement": "Average absorbance SRB", "setting": "[1]; A375 Run 3, 72 h, 100 μg/ml CDDP", "result": 1.271}, {"measurement": "MTT Average", "setting": "[2]; T47D Run 1, 24 h, 0.1 μg/ml CDDP", "result": 0.166}, {"measurement": "MTT Average", "setting": "[2]; T47D Run 1, 24 h, 1 μg/ml CDDP", "result": 0.033}, {"measurement": "MTT Average", "setting": "[2]; T47D Run 1, 24 h, 10 μg/ml CDDP", "result": 0.046}, {"measurement": "MTT Average", "setting": "[2]; T47D Run 1, 24 h, 100 μg/ml CDDP", "result": 0.045}, {"measurement": "MTT Average", "setting": "[2]; T47D Run 1, 48 h, 1 μg/ml CDDP", "result": 0.039}, {"measurement": "MTT Average", "setting": "[2]; T47D Run 1, 48 h, 10 μg/ml CDDP", "result": 0.044}, {"measurement": "MTT Average", "setting": "[2]; T47D Run 1, 48 h, 100 μg/ml CDDP", "result": 0.038}, {"measurement": "MTT Average", "setting": "[2]; T47D Run 1, 72 h, 0.1 μg/ml CDDP", "result": 0.336}, {"measurement": "MTT Average", "setting": "[2]; T47D Run 1, 72 h, 1 μg/ml CDDP", "result": 0.04}, {"measurement": "MTT Average", "setting": "[2]; T47D Run 1, 72 h, 10 μg/ml CDDP", "result": 0.05}, {"measurement": "MTT Average", "setting": "[2]; T47D Run 1, 72 h, 100 μg/ml CDDP", "result": 0.049}, {"measurement": "MTT Average", "setting": "[2]; T47D Run 2, 24 h, 0.1 μg/ml CDDP", "result": 0.181}, {"measurement": "MTT Average", "setting": "[2]; T47D Run 2, 24 h, 1 μg/ml CDDP", "result": 0.051}, {"measurement": "MTT Average", "setting": "[2]; T47D Run 2, 24 h, 10 μg/ml CDDP", "result": 0.07}, {"measurement": "MTT Average", "setting": "[2]; T47D Run 2, 24 h, 100 μg/ml CDDP", "result": 0.051}, {"measurement": "MTT Average", "setting": "[2]; T47D Run 2, 48 h, 0.1 μg/ml CDDP", "result": 0.262}, {"measurement": "MTT Average", "setting": "[2]; T47D Run 2, 48 h, 1 μg/ml CDDP", "result": 0.052}, {"measurement": "MTT Average", "setting": "[2]; T47D Run 2, 48 h, 10 μg/ml CDDP", "result": 0.066}, {"measurement": "MTT Average", "setting": "[2]; T47D Run 2, 48 h, 100 μg/ml CDDP", "result": 0.054}, {"measurement": "MTT Average", "setting": "[2]; T47D Run 2, 72 h, 0.1 μg/ml CDDP", "result": 0.397}, {"measurement": "MTT Average", "setting": "[2]; T47D Run 2, 72 h, 1 μg/ml CDDP", "result": 0.046}, {"measurement": "MTT Average", "setting": "[2]; T47D Run 2, 72 h, 10 μg/ml CDDP", "result": 0.041}, {"measurement": "MTT Average", "setting": "[2]; T47D Run 2, 72 h, 100 μg/ml CDDP", "result": 0.037}, {"measurement": "MTT Average", "setting": "[2]; T47D Run 3, 24 h, 1 μg/ml CDDP", "result": 0.033}, {"measurement": "MTT Average", "setting": "[2]; T47D Run 3, 24 h, 10 μg/ml CDDP", "result": 0.074}, {"measurement": "MTT Average", "setting": "[2]; T47D Run 3, 24 h, 100 μg/ml CDDP", "result": 0.047}, {"measurement": "MTT Average", "setting": "[2]; T47D Run 3, 48 h, 0.1 μg/ml CDDP", "result": 0.261}, {"measurement": "MTT Average", "setting": "[2]; T47D Run 3, 48 h, 1 μg/ml CDDP", "result": 0.047}, {"measurement": "MTT Average", "setting": "[2]; T47D Run 3, 48 h, 10 μg/ml CDDP", "result": 0.077}, {"measurement": "MTT Average", "setting": "[2]; T47D Run 3, 48 h, 100 μg/ml CDDP", "result": 0.051}, {"measurement": "MTT Average", "setting": "[2]; T47D Run 3, 72 h, 0.1 μg/ml CDDP", "result": 0.371}, {"measurement": "MTT Average", "setting": "[2]; T47D Run 3, 72 h, 1 μg/ml CDDP", "result": 0.035}, {"measurement": "MTT Average", "setting": "[2]; T47D Run 3, 72 h, 10 μg/ml CDDP", "result": 0.057}, {"measurement": "MTT Average", "setting": "[2]; T47D Run 3, 72 h, 100 μg/ml CDDP", "result": 0.035}]}]}
